In US8383618B2, “C2-fluoro substituted piperazine linked pyrrolo[2,1-C][1,4] benzodiazepine dimers and a process for the preparation thereof” (Council of Scientific & Industrial Research, priority 2008, dated 2013):

Assays:
calf thymus (CT) DNA = test: Thermal denaturation studies; format: binding; conditions: [PBD]:[DNA] molar ratio 1:5; CT-DNA 100 μM, ligand 20 μM; sodium phosphate buffer pH 7.00
Procedure: The DNA binding affinity of the C2-Fluoro substituted piperazine linked pyrrolo[2,1c][1,4]benzodiazepine dimers were subjected to thermal denaturation studies using calf thymus (CT) DNA (Jones, G. B.; Davey, C. L.; Jenkins, T. C.; Kamal, A.; Kneale, G. G.; Neidle, S.; Webster, G. D.; Thurston, D. E. Anti-cancer Drug Des. 1990, 5, 249. McConnaughie, A. W.; Jenkins, T. C. J. Med. Chem. 1995, 38, 3488). The studies for these compounds (IXa-f) were carried out by DNA/ligand molar ratio is 1:5 the increase in the helix melting temperature (ΔTm) for each compound was examined at 0 h. […] Data for DSB-120 and SJG-136 are included in Table-3 for comparison. The synthetic DC-81 dimer (DSB-120) gives a ΔTm 10.2° C. and SJC-136 gives a […]Tm of 25° C. under identical experimental condition.

[1] = tested on: sixty human tumor cells derived from nine cancer types; test: NCI in vitro anticancer screen (SRB), whole panel; format: cell-based; conditions: human tumor cell lines; 48 h drug exposure, SRB
Procedure: (§1) The above compounds were evaluated for in vitro anticancer activity against sixty human tumor cells derived from nine cancer types (leukemia, non small cell cancer, colon cancer CNS cancer, melanoma, ovarian cancer renal cancer, prostate cancer and breast cancer) as per NCI protocol. For each compound, dose response curves for each cell line were measured at a minimum of five concentrations at 10-fold dilution. A protocol of 48 h continuous drug exposure was used, and a sulforhodamine B (SRB) protein assay was used to estimate cell viability or growth. The concentration causing 50% cell growth inhibition (GI50), total cell growth inhibition (TGI, 0% growth) and 50% cell death (LC-50% growth) compared with the control was calculated.

786-0 = test: NCI in vitro anticancer screen (SRB); format: cell-based, human; conditions: Renal, 48 h exposure
Procedure: as §1

MOLT-4 = test: NCI in vitro anticancer screen (SRB); format: cell-based, human; conditions: Leukemia, 48 h exposure
Procedure: as §1

HL-60(TB) = test: NCI in vitro anticancer screen (SRB); format: cell-based, human; conditions: Leukemia, 48 h exposure
Procedure: as §1

T-47D = test: NCI in vitro anticancer screen (SRB); format: cell-based, human; conditions: Breast, 48 h exposure
Procedure: as §1

SW-620 = test: NCI in vitro anticancer screen (SRB); format: cell-based, human; conditions: Colon, 48 h exposure
Procedure: as §1

RPMI-8226 = test: NCI in vitro anticancer screen (SRB); format: cell-based, human; conditions: Leukemia, 48 h exposure
Procedure: as §1

IGROV1 = test: NCI in vitro anticancer screen (SRB); format: cell-based, human; conditions: Ovarian, 48 h exposure
Procedure: as §1

NCI-H522 = test: NCI in vitro anticancer screen (SRB); format: cell-based, human; conditions: Non-small cell lung, 48 h exposure
Procedure: as §1

NCI-H460 = test: NCI in vitro anticancer screen (SRB); format: cell-based, human; conditions: Non-small cell lung, 48 h exposure
Procedure: as §1

MALME-3M = test: NCI in vitro anticancer screen (SRB); format: cell-based, human; conditions: Melanoma, 48 h exposure
Procedure: as §1

HCT-116 = test: NCI in vitro anticancer screen (SRB); format: cell-based, human; conditions: Colon, 48 h exposure
Procedure: as §1

NCI-H322M = test: NCI in vitro anticancer screen (SRB); format: cell-based, human; conditions: Non-small cell lung, 48 h exposure
Procedure: as §1

OVCAR-5 = test: NCI in vitro anticancer screen (SRB); format: cell-based, human; conditions: Ovarian, 48 h exposure
Procedure: as §1

CAKI-1 = test: NCI in vitro anticancer screen (SRB); format: cell-based, human; conditions: Renal, 48 h exposure
Procedure: as §1

RXF 393 = test: NCI in vitro anticancer screen (SRB); format: cell-based, human; conditions: Renal, 48 h exposure
Procedure: as §1

HT29 = test: NCI in vitro anticancer screen (SRB); format: cell-based, human; conditions: Colon, 48 h exposure
Procedure: as §1

MCF7 = test: NCI in vitro anticancer screen (SRB); format: cell-based, human; conditions: Breast, 48 h exposure
Procedure: as §1

OVCAR-3 = test: NCI in vitro anticancer screen (SRB); format: cell-based, human; conditions: Ovarian, 48 h exposure
Procedure: as §1

BT-549 = test: NCI in vitro anticancer screen (SRB); format: cell-based, human; conditions: Breast, 48 h exposure
Procedure: as §1

SNB-19 = test: NCI in vitro anticancer screen (SRB); format: cell-based, human; conditions: CNS, 48 h exposure
Procedure: as §1

SNB-75 = test: NCI in vitro anticancer screen (SRB); format: cell-based, human; conditions: CNS, 48 h exposure
Procedure: as §1

SF-268 = test: NCI in vitro anticancer screen (SRB); format: cell-based, human; conditions: CNS, 48 h exposure
Procedure: as §1

PC-3 = test: NCI in vitro anticancer screen (SRB); format: cell-based, human; conditions: Prostate, 48 h exposure
Procedure: as §1

HOP-92 = test: NCI in vitro anticancer screen (SRB); format: cell-based, human; conditions: Non-small cell lung, 48 h exposure
Procedure: as §1

A549/ATCC = test: NCI in vitro anticancer screen (SRB); format: cell-based, human; conditions: Non-small cell lung, 48 h exposure
Procedure: as §1

OVCAR-8 = test: NCI in vitro anticancer screen (SRB); format: cell-based, human; conditions: Ovarian, 48 h exposure
Procedure: as §1

HOP-62 = test: NCI in vitro anticancer screen (SRB); format: cell-based, human; conditions: Non-small cell lung, 48 h exposure
Procedure: as §1

LOX IMVI = test: NCI in vitro anticancer screen (SRB); format: cell-based, human; conditions: Melanoma, 48 h exposure
Procedure: as §1

MDA-MB-435 = test: NCI in vitro anticancer screen (SRB); format: cell-based, human; conditions: Breast, 48 h exposure
Procedure: as §1

CCRF-CEM = test: NCI in vitro anticancer screen (SRB); format: cell-based, human; conditions: Leukemia, 48 h exposure
Procedure: as §1

SN12C = test: NCI in vitro anticancer screen (SRB); format: cell-based, human; conditions: Renal, 48 h exposure
Procedure: as §1

SK-MEL-28 = test: NCI in vitro anticancer screen (SRB); format: cell-based, human; conditions: Melanoma, 48 h exposure
Procedure: as §1

DU-145 = test: NCI in vitro anticancer screen (SRB); format: cell-based, human; conditions: Prostate, 48 h exposure
Procedure: as §1

U251 = test: NCI in vitro anticancer screen (SRB); format: cell-based, human; conditions: CNS, 48 h exposure
Procedure: as §1

ACHN = test: NCI in vitro anticancer screen (SRB); format: cell-based, human; conditions: Renal, 48 h exposure
Procedure: as §1

UACC-62 = test: NCI in vitro anticancer screen (SRB); format: cell-based, human; conditions: Melanoma, 48 h exposure
Procedure: as §1

HCC-2998 = test: NCI in vitro anticancer screen (SRB); format: cell-based, human; conditions: Colon, 48 h exposure
Procedure: as §1

TK-10 = test: NCI in vitro anticancer screen (SRB); format: cell-based, human; conditions: Renal, 48 h exposure
Procedure: as §1

K-562 = test: NCI in vitro anticancer screen (SRB); format: cell-based, human; conditions: Leukemia, 48 h exposure
Procedure: as §1

COLO 205 = test: NCI in vitro anticancer screen (SRB); format: cell-based, human; conditions: Colon, 48 h exposure
Procedure: as §1

A498 = test: NCI in vitro anticancer screen (SRB); format: cell-based, human; conditions: Renal, 48 h exposure
Procedure: as §1

M14 = test: NCI in vitro anticancer screen (SRB); format: cell-based, human; conditions: Melanoma, 48 h exposure
Procedure: as §1

SF-539 = test: NCI in vitro anticancer screen (SRB); format: cell-based, human; conditions: CNS, 48 h exposure
Procedure: as §1

SR = test: NCI in vitro anticancer screen (SRB); format: cell-based, human; conditions: Leukemia, 48 h exposure
Procedure: as §1

SK-OV-3 = test: NCI in vitro anticancer screen (SRB); format: cell-based, human; conditions: Ovarian, 48 h exposure
Procedure: as §1

KM12 = test: NCI in vitro anticancer screen (SRB); format: cell-based, human; conditions: Colon, 48 h exposure
Procedure: as §1

HS 578T = test: NCI in vitro anticancer screen (SRB); format: cell-based, human; conditions: Breast, 48 h exposure
Procedure: as §1

SK-MEL-5 = test: NCI in vitro anticancer screen (SRB); format: cell-based, human; conditions: Melanoma, 48 h exposure
Procedure: as §1

SMILES: COc1cc2c(cc1OCCCN1CCN(CCCOc3cc4c(cc3OC)C(=O)N3CC(F)(F)C[C@H]3C=N4)CC1)N=C[C@@H]1CC(F)(F)CN1C2=O [IXd, 1,1′-{[(bispropane-1,N-diyl)piperazine]dioxy}bis[(11aS)-2-2-difluoro-7-methoxy-1,2,3,11a-tetrahydro-5H-pyrrolo[2,1-c][1,4]benzodiazepine-5-one]]
- ΔTm after incubation at 37° C. for 0 h (calf thymus (CT) DNA): 11.0 °C
- Log10 GI50 mean graph midpoint (MG_MID) [1]: −5.41
- Log10 LC50 mean graph midpoint (MG_MID) [1]: −4.2
- Log10 TGI mean graph midpoint (MG_MID) [1]: −4.79
- GI50 (786-0): 3.17 µM
- GI50 (MOLT-4): 2.02 µM
- GI50 (HL-60(TB)): 1.18 µM
- GI50 (T-47D): 1.38 µM
- GI50 (SW-620): 2.61 µM
- GI50 (RPMI-8226): 2.2 µM
- GI50 (IGROV1): 1.92 µM
- GI50 (NCI-H522): 1.14 µM
- GI50 (NCI-H460): 2.6 µM
- GI50 (MALME-3M): 2.8 µM
- GI50 (HCT-116): 3.59 µM
- GI50 (NCI-H322M): 1.96 µM
- GI50 (OVCAR-5): 3.83 µM
- GI50 (CAKI-1): 3.31 µM
- GI50 (RXF 393): 2.14 µM
- GI50 (HT29): 3.61 µM
- GI50 (MCF7): 2.09 µM
- GI50 (OVCAR-3): 3.55 µM
- GI50 (BT-549): 3.25 µM
- GI50 (SNB-19): 4.08 µM
- GI50 (SNB-75): 5.52 µM
- GI50 (SF-268): 3.57 µM
- GI50 (PC-3): 3.06 µM
- GI50 (HOP-92): 6.14 µM
- GI50 (A549/ATCC): 7.3 µM
- GI50 (OVCAR-8): 6.3 µM
- GI50 (HOP-62): 3.17 µM
- GI50 (LOX IMVI): 1.89 µM
- GI50 (MDA-MB-435): 1.95 µM
- GI50 (CCRF-CEM): 0.9 µM
- GI50 (SN12C): 4.05 µM
- GI50 (SK-MEL-28): 4.28 µM
- GI50 (DU-145): 3.63 µM
- GI50 (U251): 3.36 µM
- GI50 (ACHN): 5.64 µM
- GI50 (UACC-62): 3.05 µM
- GI50 (HCC-2998): 5.4 µM
- GI50 (TK-10): 4.38 µM
- GI50 (K-562): 1.7 µM
- GI50 (COLO 205): 3.09 µM
- GI50 (A498): 2.43 µM
- GI50 (M14): 3.25 µM
- GI50 (SF-539): 3 µM
- GI50 (SR): 0.8 µM
- GI50 (SK-OV-3): 8.64 µM
- GI50 (KM12): 4.1 µM
- GI50 (HS 578T): 2.94 µM
- GI50 (SK-MEL-5): 1.86 µM

SMILES: COc1cc2c(cc1OCCCCN1CCN(CCCCOc3cc4c(cc3OC)C(=O)N3CC(F)(F)C[C@H]3C=N4)CC1)N=C[C@@H]1CC(F)(F)CN1C2=O [IXe, 1,1′-{[(bisbutane-1,N-diyl)piperazine]dioxy}bis[(11aS)-2-2-difluoro-7-methoxy-1,2,3,11a-tetrahydro-5H-pyrrolo[2,1-c][1,4]benzodiazepine-5-one]]
- ΔTm after incubation at 37° C. for 0 h (calf thymus (CT) DNA): 14.0 °C
